Measured values: ChEMBL document CHEMBL2062501 (ACS Med Chem Lett, 2012)
pIC50, pKi: −log10 of the molar value.

Key:
[1] = Oral bioavailability in dog at 10 mg/kg; type: ADME, organism-based, Canis lupus familiaris; settings: in vivo
[2] = Permeability of the compound at pH 7.4 by PAMPA; type: ADME; settings: read-out: permeability
[3] = Oral bioavailability in cynomolgus monkey at 10 mg/kg; type: ADME, organism-based, Macaca fascicularis; settings: in vivo
[4] = Permeability of the compound at pH 5.5 by PAMPA; type: ADME; settings: read-out: permeability
[5] = Metabolic stability of the compound in human liver microsomes assessed as compound remaining at 0.5 uM after 10 mins; type: ADME, Microsome; settings: read-out: Stability
[6] = target: T1, Calcitonin gene-related peptide type 1 receptor (Homo sapiens, UniProt O60894+Q16602); test: Antagonist activity at CGRP receptor in human SK-N-MC cells assessed as inhibition of CGRP-stimulated cAMP production; type: functional, cell-based
T1 sequence (Q16602 whole entry, one chain of several): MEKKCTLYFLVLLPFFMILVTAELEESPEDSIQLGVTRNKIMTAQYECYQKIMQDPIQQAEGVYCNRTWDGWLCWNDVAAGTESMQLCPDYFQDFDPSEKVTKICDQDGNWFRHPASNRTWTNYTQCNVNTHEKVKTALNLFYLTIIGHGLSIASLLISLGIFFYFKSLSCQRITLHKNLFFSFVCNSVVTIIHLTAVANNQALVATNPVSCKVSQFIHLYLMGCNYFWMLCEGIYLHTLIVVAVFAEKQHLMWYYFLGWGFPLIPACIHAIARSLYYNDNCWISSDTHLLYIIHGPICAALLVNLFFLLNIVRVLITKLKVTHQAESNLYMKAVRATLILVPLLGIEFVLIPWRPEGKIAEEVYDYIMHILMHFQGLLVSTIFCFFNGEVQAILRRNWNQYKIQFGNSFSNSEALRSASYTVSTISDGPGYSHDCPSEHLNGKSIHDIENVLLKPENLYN

[7] = Plasma concentration on marmosets at 7 mg/kg, sc measured after 105 mins; type: ADME, organism-based; set-up: dose 7 mg/kg, route subcutaneous; settings: callitrichinae sp.
[8] = Half life in human liver microsomes at 0.5 uM; type: ADME, Microsome
marmosets [9] = test: Antimigraine activity in marmosets assessed as inhibition of human alphaCGRP-induced increase in facial blood flow at 7 mg/kg, sc measured after 60 mins by laser Doppler flowmetry; type: functional; settings: Callitrichinae sp., 1 h, route subcutaneous
[10] = Plasma concentration on marmosets at 7 mg/kg, sc measured after 60 mins; type: ADME, organism-based; set-up: dose 7 mg/kg, route subcutaneous; settings: callitrichinae sp.
[11] = Oral bioavailability in rat at 10 mg/kg; type: ADME, organism-based; settings: in vivo
marmosets [12] = test: Antimigraine activity in marmosets assessed as inhibition of human alphaCGRP-induced increase in facial blood flow at 7 mg/kg, sc measured after 105 mins by laser Doppler flowmetry; type: functional; settings: Callitrichinae sp., 1.75 h, route subcutaneous
[13] = target: T1, Calcitonin gene-related peptide type 1 receptor; test: Displacement of [125I]-CGRP from CGRP receptor in human SK-N-MC cells; type: cell-based
marmosets [14] = test: Antimigraine activity in marmosets assessed as inhibition of alphaCGRP-induced increase in facial blood flow at 10 mg/kg, po by laser Doppler flowmetry; type: functional; settings: Callitrichinae sp., in Callithrix jacchus

| Structure (SMILES) | bioavailability [1] | Papp [2] | bioavailability [3] | Papp [4] | remaining at 10 min, 0.5 µM [5] | pIC50 [6] | concentration at 1.75 h [7] | half-life at 0.5 µM [8] | inhibition in vivo at 7 mg/kg (marmosets [9]) | concentration at 1 h [10] | bioavailability [11] | inhibition in vivo at 7 mg/kg (marmosets [12]) | pKi [13] | inhibition in vivo at 10 mg/kg (marmosets [14]) |
| --- | --- | --- | --- | --- | --- | --- | --- | --- | --- | --- | --- | --- | --- | --- |
| O=C(O[C@@H]1CC[C@@H](c2cccc(F)c2F)Cc2cccnc21)N1CCC(n2c(=O)[nH]c3ncccc32)CC1 | 34% | 88 ×10⁻⁶ cm/s | 38% | 150 ×10⁻⁶ cm/s | 74% | 9.66 | > 1500 nM | 24 min | 52% | > 1000 nM | 29% | 52% | 10.15 | – |
| Cc1cc(CC(OC(=O)N2CCC(n3c(=O)[nH]c4ncccc43)CC2)c2cc(C(=O)N(C)C)cc(Cl)n2)cc2cn[nH]c12 (racemic) | – | – | – | – | – | – | – | – | – | – | – | – | 10.15 | 31% |
| O=C(O[C@H]1CC[C@H](c2cccc(F)c2F)Cc2cccnc21)N1CCC(n2c(=O)[nH]c3ncccc32)CC1 | – | – | – | – | – | – | – | – | – | – | – | – | 6.03 | – |
